Assay results reported in US6777440B2, “HIV integrase inhibitors” (Bristol-Myers Squibb Company, priority 2001, dated 2004).

Assays:
[1] = tested on: single cycle, recombinant HIV virus expressing Renella luciferase; experiment: Inhibition of HIV replication (single cycle recombinant virus, luciferase readout); format: cell-based; details: Human immunodeficiency virus 1, 120 h, read-out: % Inhibition @ 1.6 uM
Method: Cell culture assays were preformed using a single cycle, recombinant HIV virus expressing Renella luciferase. Anti-viral activity was evaluated by measuring the production of luciferase in the infected cells 5 days post-infection. Susceptibility of the virus to compounds was determined by incubation in the presence of the serially-diluted compound. The 50% effective concentration (EC50) was calculated by using the exponential form of the median effect equation where (Fa)=1/[1+(ED50/drug conc.)^m]. Compounds of this invention tested in this assay have EC50's of approximately 0.02 to 50 μM.

[2] = biological target: T1, HIV-integrase (Human immunodeficiency virus type 1 group M subtype B, UniProt P04585); experiment: HIV-integrase inhibition activity (SPA bead strand-transfer assay); format: biochemical; details: 50 μM compound; recombinant integrase
T1 construct: 0.26 ng of recombinant integrase was incubated with the beads
Method: For each reaction, 5 pmole of biotin labled substrate DNA was bound to 100 ug of Streptavidin coated PVT SPA beads (Amersham Pharmacia Biotech). 0.26 ng of recombinant integrase was incubated with the beads for 90 min at 37° C. Unbound enzyme was removed by washing the complex followed by addition of inhibitors and 0.1 fmol of P33 labeled target DNA. Reaction was stopped by adding EDTA to a final concentration of 10 mM. Samples were counted in TopCountNXT (Packard) and the CPM was used as a measure of integration. Reaction condition was as described in A. Engelman and R. Craigie, J. Virol. 69, 5908-5911 (1995). The sequences of substrate and target DNA were described in Nucleic Acid Research 22, 1121-1122 (1994). Compounds of this invention tested in this assay have IC50's of approximately 0.01 to 50 μM

[3] = Hydrolysis of prodrugs under physiological conditions (pH 7, 37° C., HPLC); format: physicochemical; details: 25 mM phosphate buffer pH 7, 37° C.; for Compound 3-C: remaining prodrug; for Compound 3: parent acid formed from 3-C
Method: As shown in Scheme VII, compounds of Formula VII-A wherein R^1 and R^2 are as defined for Formula I, are hydrolyzed at pH 7 (37° C.) to yield the corresponding 2-hydroxy acrylic, VII-B, and are thus useful as prodrugs. [drawing 203]
In an experiment to measure the hydrolysis of compounds such as VII-A, compound 3-C was added to 25 mM phosphate buffer (pH 7) at a concentration of 0.03 mg/mL. The reaction was incubated at 37° C. for a period of 24 hours. Interval time points are analyzed by HPLC, identifying both the compound 3-C and compound 3, the parent acid.

SMILES | inhibition at 1.6 µM [1] [%] | inhibition at 50 µM [2] [%] | melting point | other results
CON(Cc1ccccc1OC(C)C)C(=O)/C=C(\O)C(=O)O [Compound 31, 2-Hydroxy-3-[(2-isopropoxy-benzyl)-methoxy-carbamoyl]-acrylic acid] | 47 |  |  | 
CON(Cc1ccc(F)c(Cl)c1)C(=O)/C=C(\O)C(=O)O [Compound 5, 3-[(3-Chloro-4-fluoro-benzyl)-methoxy-carbamoyl]-2-hydroxy-acrylic acid] | 96 | 99.9 |  | 
CON(Cc1ccc(F)c(Cl)c1)C(=O)/C=C1\OC(C)(C)OC1=O [Compound 5-B, N-(3-Chloro-4-fluoro-benzyl)-2-(2,2-dimethyl-5-oxo-[1,3]dioxolan-4-ylidene)-N-methoxy-acetamide] | 94 |  | 110 to 111 °C | 
CON(Cc1ccc(Cl)c(Cl)c1)C(=O)/C=C(\O)C(=O)O [Compound 4, 3-[(3,4-Dichloro-benzyl)-methoxy-carbamoyl]-2-hydroxy-acrylic acid] | 90 | 99.9 |  | 
CON(Cc1ccc(F)cc1)C(=O)/C=C1\OC(C)(C)OC1=O [Compound 3-C, 2-(2,2-Dimethyl-5-oxo-[1,3]dioxolan-4-ylidene)-N-(4-fluoro-benzyl)-N-methoxy-acetamide] | 96 |  |  | Compound 3-C ([3]; 3-C added at 0.03 mg/mL, time 0 h): 0.026 mg/mL; Compound 3-C ([3]; time 0.5 h): 0.022 mg/mL; Compound 3-C ([3]; time 1 h): 0.017 mg/mL; Compound 3-C ([3]; time 1.5 h): 0.013 mg/mL; Compound 3-C ([3]; time 2 h): 0.010 mg/mL; Compound 3-C ([3]; time 4 h): 0.003 mg/mL; Compound 3-C ([3]; time 6 h): 0.001 mg/mL
CON(Cc1ccccc1C)C(=O)/C=C(\O)C(=O)O [Compound 15, 2-Hydroxy-3-[methoxy-(2-methyl-benzyl)-carbamoyl]-acrylic acid] | 33 | 99 | 85 to 87 °C (dec.) | 
CON(Cc1ccc(F)cc1)C(=O)/C=C(\O)C(=O)O [Compound 3, 3-[(4-Fluoro-benzyl)-methoxy-carbamoyl]-2-hydroxy-acrylic acid] | 96 | 99.9 | 129 °C (dec.) | Compound 3 ([3]; time 0 h): 0.001 mg/mL; Compound 3 ([3]; time 0.5 h): 0.008 mg/mL; Compound 3 ([3]; time 1 h): 0.012 mg/mL; Compound 3 ([3]; time 1.5 h): 0.014 mg/mL; Compound 3 ([3]; time 2 h): 0.016 mg/mL; Compound 3 ([3]; time 4 h): 0.021 mg/mL; Compound 3 ([3]; time 6 h): 0.022 mg/mL
CON(Cc1ccc(Cl)c(Cl)c1)C(=O)/C=C1\OC(C)(C)OC1=O [Compound 4-B, N-(3,4-Dichloro-benzyl)-2-(2,2-dimethyl-5-oxo-[1,3]dioxolan-4-ylidene)-N-methoxy-acetamide] | 87 |  | 119 to 120 °C | 
CON(Cc1ccc(F)c(C#N)c1)C(=O)/C=C(\O)C(=O)O [Compound 19, 3-[(3-Cyano-4-fluoro-benzyl)-methoxy-carbamoyl]-2-hydroxy-acrylic acid] |  | 99.9 | 144 to 151 °C (dec.) | 
CON(Cc1ccc(F)cc1F)C(=O)/C=C(\O)C(=O)O [Compound 17, 3-[(2,4-Difluoro-benzyl)-methoxy-carbamoyl]-2-hydroxy-acrylic acid] |  | 99.9 | 131 to 132 °C | 
COC(=O)c1ccc(CN(OC)C(=O)C=C(O)C(=O)O)cc1 [Compound 18, 4-{[(3-Carboxy-3-hydroxy-acryloyl)-methoxy-amino]-methyl}-benzoic acid methyl ester] |  | 96 | 110 to 111 °C | 
CON(Cc1ccc(NC(C)=O)cc1)C(=O)/C=C(\O)C(=O)O [Compound 23, 3-[(4-Acetylamino-benzyl)-methoxy-carbamoyl]-2-hydroxy-acrylic acid] |  | 65 | 155 °C (dec.) | 
CC(C)CON(Cc1ccc(F)cc1)C(=O)/C=C(\O)C(=O)O [Compound 13, 3-[(4-Fluoro-benzyl)-isobutoxy-carbamoyl]-2-hydroxy-acrylic acid] |  | 99.9 | 100 to 101 °C | 
CON(CCc1ccc(F)cc1)C(=O)/C=C(\O)C(=O)O [Compound 9, 3-{[2-(4-Fluoro-phenyl)-ethyl]-methoxy-carbamoyl}-2-hydroxy-acrylic acid] |  | 99.9 | 107 to 108 °C (dec.) | 
CON(Cc1ccc(F)c(Br)c1)C(=O)/C=C(\O)C(=O)O [Compound 14, 3-[(3-Bromo-4-fluoro-benzyl)-methoxy-carbamoyl]-2-hydroxy-acrylic acid] |  | 99.9 | 140 to 141 °C | 
